Like-named read-outs stand apart in the source and are kept apart here.
Tests used:
Pgp = Pgp (Homo sapiens, UniProt P08183); details: cited from earlier work
bcr-abl = assay: TaqMan qPCR assay for bcr-abl and abl in plucked CML colonies; format: cell-based, human; details: 10 μM
Experimental: To determine whether a colony was normal (bcr-abl negative and abl positive) or diseased (bcr-abl and abl positive), a TaqMan®-based qPCR test was used. In order to score the colonies positive or negative, the following scoring strategy was performed. All colonies were assayed in duplicate for each target. If a singleton reaction yielded a Ct then the reaction scored a 1. If no Ct was recorded, a score of 0 was given. From here, we used a logic test to score the colonies into four different categories: bcr-abl and abl, abl only, bcr-abl only or both negative. In order to be placed in a category, a colony must score a 1 in both reactions. However, if a colony only scored a 1 for one out of the two reactions, this colony was removed from the analysis. If a colony scored a 1 for each reaction (both ber-abl and abl) the colony was placed into the ber-abl and abl category, signifying it as a diseased colony. Alternatively, if a colony scored a 1 in only both of the ber-abl reactions or a 1 in only both the abl reactions, the colony was placed in the ber-abl only or abl only category, respectively. If the colony scored a 0 for both targets (bcr-abl and abl) then the colony was placed in the both negative category.
In total 48 primary colonies and 31 secondary replated colonies were assessed for bcr-abl and abl using qPCR. […] Thirteen secondary colonies treated with Tetrandrine at 10 μM were assessed.

[1] = test system: human chronic myeloid leukemia (CML) progenitors; assay: Colony forming cell (CFC) assay on CML patient bone marrow cells, methylcellulose-based medium; details: for BFU-E colonies / CFU-E colonies / Total Erythroid colonies: no Epo
[2] = test system: human chronic myeloid leukemia (CML) progenitors; assay: as above
Experimental: An in vitro investigation was performed to determine whether TET has efficacy on human chronic myeloid leukemia (CML) stem-like cells. A colony forming cell (CFC) assay was performed on bone marrow cells from a de-novo CML patient.
Human bone marrow light density cells derived from CML patient bone marrow (Conversant Bio, Alabama), were stored in the gaseous phase of liquid nitrogen until required. On the day of the experiment, the cells were thawed rapidly, the contents of the vial were diluted in 10 mL of Iscove's Modified Dulbecco's Medium containing 10% fetal bovine serum (IMDM+10% FBS) and washed by centrifugation (approximately 1200 r.p.m. for 10 minutes, room temperature). The supernatant was discarded and the cell pellets resuspended in a known volume of IMDM+10% FBS. A cell count (3% glacial acetic acid) and viability assessment (trypan blue exclusion test) […] Tetrandrine (10 μM) for 14 days. After treatment, primary and secondary colonies were grown and analyzed by qPCR to determine BCR-ABL or ABL only cells.
Human erythroid (CFU-E and BFU-E) and myeloid (CFU-GM) colony enumeration were performed by trained personnel. In addition, the distribution of colony types as well as general colony and cellular morphology were analyzed. […] For statistical analysis, colony numbers in compound-treated cultures were compared to the solvent control cultures.

[3] = test system: human breast, colon carcinoma, and hepatoma cell lines; details: read-out: IC50 range; cited from earlier work
calmodulin (CaM) = calmodulin (CaM) (Homo sapiens, UniProt P0DP23); details: cited from earlier work
β-catenin = β-catenin protein level in K562 cell extracts by western blot; format: cell-based, human; details: for β-catenin level in K562 cells: 0.1-40 μM, 24 hours
Experimental: The second portion was to quantitate the levels of β-catenin protein by western blot. TET's ability in an in vitro assay to reduce β-catenin expression was tested in human erythroleukemic (K562) cells. Testing was conducted by Alamo Laboratories, San Antonia, TX.
Briefly, the method to quantitate β-catenin protein by western blot was as follows: Extracts of K562 cells (untreated and treated with various concentrations of tetrandrine) were concentrated to 0.4 ml using Centricon-3 column to yield a protein concentration of approximately 2 mg/ml. Samples were mixed with 5× Laemmli buffer and loaded on 8-16% Tris-Glycine gradient gel, then polyacrylamide gel electrophoresis (PAGE) was run at 85 volts for 100 minutes at 6° C. and proteins were transferred on PVDF membrane at 70 Volts for 85 minutes at 8° C. Membrane was blocked with 5% milk in Tris-buffered Saline containing 0.1% TW-20 (TBST). Membrane was incubated with primary antibody for 18 hours at 4° C. followed by 3 washes, 5 minutes each, with TBST and incubated with secondary antibody in TBST for 2 hours at 25° C. The membrane was washed again with TBST as described above and incubated with ECL-2 substrate for 5 minutes and scanned on Kodak Image Station. After scan, blot was stripped of primary and secondary antibodies and re-probed with anti-beta Actin antibody as described above. Protein bands in WB images were quantitated using Molecular Imaging software pack MIS-4.0 software and tabulated in Excel spreadsheet.

[4] = test system: CML colonies (secondary clonal growth); assay: Replating assay, secondary clonal growth of CML colonies; format: cell-based, human; details: colonies from original cultures with ES-3000 @10 μM
HCT116 cells = details: human colorectal (HCT116) cells; cited from earlier work
[5] = Primary colonies, of 17 colonies
[6] = Secondary colonies, of 10 colonies

Pgp, sequence (P08183 whole entry): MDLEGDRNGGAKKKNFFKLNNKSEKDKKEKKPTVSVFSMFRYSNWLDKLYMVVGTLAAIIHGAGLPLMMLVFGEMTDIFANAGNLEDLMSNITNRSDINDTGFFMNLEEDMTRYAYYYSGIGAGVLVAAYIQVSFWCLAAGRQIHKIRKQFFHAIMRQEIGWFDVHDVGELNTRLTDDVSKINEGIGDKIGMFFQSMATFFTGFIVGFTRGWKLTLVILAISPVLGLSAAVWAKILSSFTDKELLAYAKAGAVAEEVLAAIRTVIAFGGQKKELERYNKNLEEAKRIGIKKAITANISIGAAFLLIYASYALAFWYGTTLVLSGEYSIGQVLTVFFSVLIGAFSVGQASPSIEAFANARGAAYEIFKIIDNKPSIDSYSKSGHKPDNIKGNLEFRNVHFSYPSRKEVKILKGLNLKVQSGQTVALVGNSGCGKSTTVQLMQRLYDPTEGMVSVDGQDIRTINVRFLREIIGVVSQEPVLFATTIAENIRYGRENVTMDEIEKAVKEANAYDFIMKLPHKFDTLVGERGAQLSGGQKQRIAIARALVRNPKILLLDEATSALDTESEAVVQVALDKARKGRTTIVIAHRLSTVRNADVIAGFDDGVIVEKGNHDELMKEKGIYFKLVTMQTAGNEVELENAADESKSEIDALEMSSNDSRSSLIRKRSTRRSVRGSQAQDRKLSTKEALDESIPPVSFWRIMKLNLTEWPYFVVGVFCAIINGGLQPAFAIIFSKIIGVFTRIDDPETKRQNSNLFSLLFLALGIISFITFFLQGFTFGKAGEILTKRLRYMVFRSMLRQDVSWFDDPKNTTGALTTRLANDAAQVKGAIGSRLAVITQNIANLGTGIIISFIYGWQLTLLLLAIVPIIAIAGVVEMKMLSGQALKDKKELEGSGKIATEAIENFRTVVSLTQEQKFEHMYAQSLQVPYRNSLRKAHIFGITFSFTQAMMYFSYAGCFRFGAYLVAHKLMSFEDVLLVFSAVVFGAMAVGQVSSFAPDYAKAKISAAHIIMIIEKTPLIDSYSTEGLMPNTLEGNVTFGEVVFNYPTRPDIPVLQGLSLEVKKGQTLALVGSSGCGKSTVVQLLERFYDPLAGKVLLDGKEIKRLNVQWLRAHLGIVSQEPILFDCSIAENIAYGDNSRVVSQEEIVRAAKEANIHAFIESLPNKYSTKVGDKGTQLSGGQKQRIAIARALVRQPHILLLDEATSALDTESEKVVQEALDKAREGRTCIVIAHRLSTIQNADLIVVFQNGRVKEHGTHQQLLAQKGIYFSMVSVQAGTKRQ

Substance: 6,6′,7,12-tetramethoxy-2,2′-dimethyl-berbaman [ES-3000]
- Pgp substrate (Pgp): not a substrate of Pgp
- function of Pgp (Pgp): directly inhibits the function of Pgp in a dose-dependent manner
- abl only colonies (bcr-abl; Primary colonies): 1
- bcr-abl and abl colonies (bcr-abl; Primary colonies): 11
- bcr-abl only colonies (bcr-abl; Primary colonies): 1
- both negative colonies (bcr-abl; Primary colonies): 4
- colonies abl positive only (bcr-abl; [5]): 5.8%
- colonies bcr-abl and abl positive (bcr-abl; [5]): 65%
- colonies negative for both targets (bcr-abl; [5]): 23.5%
- colonies bcr-abl and abl positive (bcr-abl; Primary colonies, of 17 colonies, listed as Tetrandrine): 64.7%
- abl only colonies (bcr-abl; Secondary colonies): 1
- bcr-abl and abl colonies (bcr-abl; Secondary colonies): 0
- bcr-abl only colonies (bcr-abl; Secondary colonies): 0
- both negative colonies (bcr-abl; Secondary colonies): 9
- colonies negative for both bcr-abl and abl (bcr-abl; [6]): 90%
- colonies positive for abl only (bcr-abl; [6]): 10%
- CFU-GM colonies ([1]; 0.1 μM): 55 ± 5
- Total CFC ([1]; 0.1 μM): 88 ± 8
- BFU-E colonies ([1]; 0.1 μM): 22 ± 4
- CFU-E colonies ([1]; 0.1 μM): 11 ± 1
- Total Erythroid colonies ([1]; 0.1 μM): 33 ± 3
- CFU-GM colonies ([1]; 1 μM): 54 ± 2
- Total CFC ([1]; 1 μM): 86 ± 4
- BFU-E colonies ([1]; 1 μM): 22 ± 4
- CFU-E colonies ([1]; 1 μM): 10 ± 2
- Total Erythroid colonies ([1]; 1 μM): 33 ± 3
- CFU-GM colonies ([1]; 3 μM): 52 ± 5
- Total CFC ([1]; 3 μM): 75 ± 6
- BFU-E colonies ([1]; 3 μM): 14 ± 3
- CFU-E colonies ([1]; 3 μM): 9 ± 2
- Total Erythroid colonies ([1]; 3 μM): 23 ± 2
- IC50 ([1]; read-out: Erythroid IC50 ± 95% CI, Human progenitors): 3.12 ± 0.01 µM
- CFU-GM colonies ([2]; 10 μM): 26 ± 2
- Total CFC ([2]; 10 μM): 26 ± 2
- IC50 ([2]; read-out: Myeloid IC50 ± 95% CI, Human progenitors): 9.56 ± 1.25 µM
- IC50 [3]: 1.53 to 10.4 µM
- binding to calmodulin (CaM) (calmodulin (CaM)): bind competitively to calmodulin (CaM)
- β-catenin level in K562 cells (β-catenin; listed as TET): reduced β-catenin
- β-catenin level in K562 cells (β-catenin; listed as Tetrandrine): lowers the β-catenin level in K562 cells in a dose dependent manner
- β-catenin band in western blot (β-catenin; K562 cells treated with 0 to 10 uM): A clear β-catenin band was evident
- β-catenin band in western blot (β-catenin; K562 cells treated with 20 and 40 uM): a convincing β-catenin band was absent
- beta-catenin level (quantitation of protein bands) (β-catenin; K562 cells treated with >10 uM): significantly less
- average CFC per well (secondary growth) [4]: three
- wells supported secondary growth with one or more colony [4]: 54.2%
- wnt/β-catenin signaling and tumor growth (HCT116 cells): inhibit wnt/β-catenin signaling and tumor growth
